Reference: patent publication US10323018B2 (Millennium Pharmaceuticals, Inc., priority 2015, dated 2019)
pIC50: −log10 of the molar value.

How the values were obtained:
hNAMPT protein = hNAMPT protein (Homo sapiens (Human), UniProt P43490); assay: NAMPT enzyme assay (TR-FRET/HTRF with BodiPY ligand); type: binding; conditions: for inhibition at 1 µM: NAMPT inhibition at compound concentration 1 μM, read-out: Percent Inhibition; for pIC50: NAMPT inhibition, IC50 range class
How it was run: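 Ligand displacement by TR-FRET: BodiPY emission (520 nm) over terbium (486 nm) after 320 nm excitation. Compound, BodiPY ligand, hNAMPT and anti-6His-Tb incubated 1 h at room temperature, dark, at pH 7.5. Percent inhibition computed versus DMSO; concentration-response curves fitted for IC50.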

PC3 cells = assay: PC3 growth inhibition (Cell-titer glo, 72 hours); type: cell-based; conditions: Homo sapiens, PC-3, 72 h, read-out: Percent Viability, PC3 cells, compound concentration 1.667 μM, 72 hours
How it was run: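 After 72 h compound treatment in AIM serum-free medium (37 °C, 5% CO2), viability of overnight-plated PC3 cells (8×10^4 cells/ml, RPMI1640-maintained) is read by CellTiter-Glo luminescence versus DMSO. Curves give GI50, LD50 or single-concentration % remaining viability.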

hNAMPT protein, sequence (P43490 whole entry): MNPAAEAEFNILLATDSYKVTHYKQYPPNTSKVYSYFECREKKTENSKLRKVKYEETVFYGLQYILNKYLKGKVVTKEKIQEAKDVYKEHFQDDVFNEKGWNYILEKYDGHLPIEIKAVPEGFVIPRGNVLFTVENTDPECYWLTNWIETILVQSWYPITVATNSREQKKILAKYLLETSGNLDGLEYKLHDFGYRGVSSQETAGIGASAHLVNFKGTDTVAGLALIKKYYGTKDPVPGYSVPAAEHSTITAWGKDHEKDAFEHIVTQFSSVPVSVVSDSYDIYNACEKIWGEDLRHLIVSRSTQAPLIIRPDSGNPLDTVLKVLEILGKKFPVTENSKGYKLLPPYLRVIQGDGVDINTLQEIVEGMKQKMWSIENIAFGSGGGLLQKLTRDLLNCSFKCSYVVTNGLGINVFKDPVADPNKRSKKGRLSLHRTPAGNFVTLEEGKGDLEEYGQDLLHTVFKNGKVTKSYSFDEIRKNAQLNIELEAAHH

CCOc1cc(-c2cc(OC)ncc2F)nc2cc(C(=O)NCCc3cnn[nH]3)ccc12 [Compound I-189, 4-ethoxy-2-(5-fluoro-2-methoxypyridin-4-yl)-N-[2-(1H-1,2,3-triazol-5-yl)ethyl]quinoline-7-carboxamide]
inhibition at 1 µM (hNAMPT protein): 74%
pIC50 (hNAMPT protein): < 7.00
viability at 1.667 µM (PC3 cells): > 99%

CCCc1nc(-c2ccc(Cl)cc2)nc2cc(C(=O)NCc3ccc4nccn4c3)ccc12 [Compound I-8, 2-(4-chlorophenyl)-N-(imidazo[1,2-a]pyridin-6-ylmethyl)-4-propylquinazoline-7-carboxamide]
inhibition at 1 µM (hNAMPT protein): 98%
pIC50 (hNAMPT protein): > 8.00
viability at 1.667 µM (PC3 cells): 1%

CCOc1cc(-c2ccn(C)c(=O)c2)nc2cc(C(=O)NCCCc3cc[nH]n3)ccc12 [Compound I-119, 4-ethoxy-2-(1-methyl-2-oxo-1,2-dihydropyridin-4-yl)-N-[3-(1H-pyrazol-3-yl)propyl]quinoline-7-carboxamide]
inhibition at 1 µM (hNAMPT protein): 100%
pIC50 (hNAMPT protein): 7.30 to 8.00
viability at 1.667 µM (PC3 cells): 2%

CCOc1cc(-c2ccc(F)cc2)nc2cc(C(=O)NCCCc3cnn[nH]3)ccc12 [Compound I-115, 4-ethoxy-2-(4-fluorophenyl)-N-[3-(1H-1,2,3-triazol-5-yl)propyl]quinoline-7-carboxamide]
inhibition at 1 µM (hNAMPT protein): > 99%
pIC50 (hNAMPT protein): > 8.00
viability at 1.667 µM (PC3 cells): 2%

CCOc1cc(-c2ccnc(OC)c2)nc2cc(C(=O)NCCCc3ccn[nH]3)ccc12 [Compound I-155, 4-ethoxy-2-(2-methoxypyridin-4-yl)-N-[3-(1H-pyrazol-5-yl)propyl]quinoline-7-carboxamide]
inhibition at 1 µM (hNAMPT protein): 98%
pIC50 (hNAMPT protein): 7.30 to 8.00
viability at 1.667 µM (PC3 cells): 2%

CCOc1cc(-c2ccc(C)nc2)nc2cc(C(=O)NCCc3c[nH]nn3)ccc12 [Compound I-169, 4-ethoxy-2-(6-methylpyridin-3-yl)-N-[2-(1H-1,2,3-triazol-4-yl)ethyl]quinoline-7-carboxamide]
inhibition at 1 µM (hNAMPT protein): 97%
pIC50 (hNAMPT protein): 7.30 to 8.00
viability at 1.667 µM (PC3 cells): 3%

COCCOc1cc(-c2ccc(F)cc2)nc2cc(C(=O)NCc3ccn4ncnc4c3)ccc12 [Compound I-82, 2-(4-fluorophenyl)-4-(2-methoxyethoxy)-N-([1,2,4]triazolo[1,5-a]pyridin-7-ylmethyl)quinoline-7-carboxamide]
inhibition at 1 µM (hNAMPT protein): 100%
pIC50 (hNAMPT protein): > 8.00
viability at 1.667 µM (PC3 cells): 2%

COCCOc1cc(-c2ccc(F)cc2)nc2cc(C(=O)NCCCc3n[nH]nc3C)ccc12 [Compound I-66, 2-(4-fluorophenyl)-4-(2-methoxyethoxy)-N-[3-(5-methyl-2H-1,2,3-triazol-4-yl)propyl]quinoline-7-carboxamide]
inhibition at 1 µM (hNAMPT protein): 94%
pIC50 (hNAMPT protein): 7.30 to 8.00
viability at 1.667 µM (PC3 cells): 2%

CCNc1cc(-c2ccc(F)cc2)nc2cc(C(=O)NCCCc3nnc[nH]3)ccc12 [Compound I-151, 4-(ethylamino)-2-(4-fluorophenyl)-N-[3-(4H-1,2,4-triazol-3-yl)propyl]quinoline-7-carboxamide]
inhibition at 1 µM (hNAMPT protein): 61%
pIC50 (hNAMPT protein): < 7.00
viability at 1.667 µM (PC3 cells): 3%

CCOc1cc(-c2ccnc(C)c2)nc2cc(C(=O)NCCc3nnc[nH]3)ccc12 [Compound I-172, 4-ethoxy-2-(2-methylpyridin-4-yl)-N-[2-(4H-1,2,4-triazol-3-yl)ethyl]quinoline-7-carboxamide]
inhibition at 1 µM (hNAMPT protein): 71%
pIC50 (hNAMPT protein): < 7.00
viability at 1.667 µM (PC3 cells): 6%

CCOc1cc(-c2cnc(Cl)cc2C)nc2cc(C(=O)NCCCc3nnc[nH]3)ccc12 [Compound I-211, 2-(6-chloro-4-methylpyridin-3-yl)-4-ethoxy-N-[3-(4H-1,2,4-triazol-3-yl)propyl]quinoline-7-carboxamide]
inhibition at 1 µM (hNAMPT protein): 50%
pIC50 (hNAMPT protein): < 7.00
viability at 1.667 µM (PC3 cells): 3%

CCOc1cc(-c2ccc(F)cc2OC)nc2cc(C(=O)NCCc3c[nH]nc3C)ccc12 [Compound I-129, 4-ethoxy-2-(4-fluoro-2-methoxyphenyl)-N-[2-(3-methyl-1H-pyrazol-4-yl)ethyl]quinoline-7-carboxamide]
inhibition at 1 µM (hNAMPT protein): 96%
pIC50 (hNAMPT protein): 7.30 to 8.00
viability at 1.667 µM (PC3 cells): 2%
